# Data as given in patent publication US20060035846A1, “Preventing/correcting functional disorders of the pilosebaceous unit of mammals” (L'OREAL, priority 2002, published 2006).
# System: costo-vertebral organ (CVO) of the hamster
# Assay: CVO test: inhibition of the "testosterone effect" by food supplements
# Assay type: in vivo
# Settings: daily topical application of testosterone to the right CVO from day 50; control animals without food supplement; FIG. 1
# Text: 1-A: Principle of the CVO Test:
# The CVO of the hamster is a cutaneous region rich in pilosebaceous units.
# The CVO test consists of determining the anti-androgenic action of different compounds on the CVO, i.e., of determining whether said compounds prevent the action of testosterone (Liao S et al., Arch Dermatol Res, 293(4), 200-206 (2001)).
# Consequently, this figure illustrates the “testosterone effect”.
# As from the fiftieth day (dotted arrow), testosterone was applied daily to the right CVO.
# The following products were used in the context of the in vivo CVO test such as defined above. These products were tested as food supplements, alone or in combination. • (a) the natural aroma of red wine rich in resveratrol (stilbenes) and proanthocyanidines (flavonoids) in the proportion of 0.11 g in 43 g of food (18% of polyphenols); • (b) a soja extract containing 40% of isoflavonoids, in a proportion of 0.02 g of extract in 44 g of food (40% of isoflavones); • (c) black currant pip oil rich in γ-linolenic acid (polyunsaturated fatty acid 18:3 n-6) in a proportion of 10% by weight in the foodstuff; • (d) the combination of the above three products.
smiles,measurement,value
C[C@]12CC[C@H]3[C@@H](CCC4=CC(=O)CC[C@@]43C)[C@@H]1CC[C@@H]2O [testosterone],"size of the right CVO compared with that of the left CVO (""testosterone effect"")",increase in the size
